In PubChem BioAssay (NCI):
Where “and” joins values, the source holds several entries; their conditions need not be identical. Equal entries are not always repeated.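 Values below derive from 48-hour exposures of cells grown in 96-well plates, with endpoints linearly interpolated between the two concentrations bracketing the appropriate inhibition level. GI50 = concentration required for 50% inhibition of growth. TGI denotes the concentration required for complete inhibition of growth.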 Calls of active or inactive are those of the source. Rule as the data show it: active = GI50 below about 0.43 µM; inactive = the rest.

Experiments:
Assay in all cases: inhibition of tumour cell growth, NCI panel, 48 h
A549 NSCLC = system: A549 NSCLC
KM20L2 colon = system: KM20L2 colon
NCI-H23 lung = system: NCI-H23 lung
HT29 colon = system: HT29 colon
IGROV1 ovarian = system: IGROV1 ovarian
OVCAR-3 ovarian = system: OVCAR-3 ovarian
MOLT-4 leukemia = system: MOLT-4 leukemia
OVCAR-8 ovarian = system: OVCAR-8 ovarian
HOP-92 NSCLC = system: HOP-92 NSCLC

| Compound | GI50 (A549 NSCLC) | TGI (A549 NSCLC) | GI50 (KM20L2 colon) | TGI (KM20L2 colon) | GI50 (NCI-H23 lung) | TGI (NCI-H23 lung) | GI50 (HT29 colon) | TGI (HT29 colon) | GI50 (IGROV1 ovarian) | TGI (IGROV1 ovarian) | GI50 (OVCAR-3 ovarian) | TGI (OVCAR-3 ovarian) | GI50 (MOLT-4 leukemia) | TGI (MOLT-4 leukemia) | GI50 (OVCAR-8 ovarian) | TGI (OVCAR-8 ovarian) | GI50 (HOP-92 NSCLC) | TGI (HOP-92 NSCLC) | outcome (KM20L2 colon) |
| --- | --- | --- | --- | --- | --- | --- | --- | --- | --- | --- | --- | --- | --- | --- | --- | --- | --- | --- | --- |
| CC(=O)[CH-]C(=O)c1ccccc1.CC(=O)[CH-]C(=O)c1ccccc1.CC[C@H](/C=C/C(C)[C@H]1CCC2[C@@H]3CC=C4C[C@@H]([O-])CC[C@]4(C)C3CC[C@@]21C)C(C)C.CC[O-].[Ti+4] (stereo partly drawn) | > 100 µM | > 100 µM | > 100 µM | > 100 µM | > 100 µM | > 100 µM | > 100 µM | > 100 µM | > 100 µM | > 100 µM | > 100 µM | > 100 µM | > 100 µM | > 100 µM | > 100 µM | > 100 µM | 95.3 µM | > 100 µM |  |
| COC(=O)C[CH2][Ge]([CH3])([CH3])[S]c1ccccc1 | 30.6 µM | > 100 µM | 38.4 µM | > 100 µM | 43.3 µM | > 100 µM | 44.2 µM | > 100 µM | 1.25 µM | 4.72 µM | 29.9 µM | > 100 µM | 8.31 µM | 33.5 µM | 25.2 µM | 83.8 µM | 17.7 µM | 92.8 µM |  |
| O=C(N/C(=C\c1ccc(/C=C(\NC(=O)c2ccccc2)c2nc3cc(Cl)ccc3[nH]2)cc1)c1nc2cc(Cl)ccc2[nH]1)c1ccccc1 |  | > 100 µM |  | 55.5 µM |  | > 100 µM |  | > 100 µM |  | > 100 µM |  | > 100 µM |  | 39.8 µM |  | > 100 µM |  | > 100 µM |  |
| CSc1nc2c(nc(N)n2C2OC(COC(C)=O)C(OC(C)=O)C(OC(C)=O)C2OC(C)=O)c(=O)n1C (stereo not drawn) |  | > 100 µM |  | > 100 µM |  | > 100 µM |  | > 100 µM |  | > 100 µM |  | > 100 µM |  | > 100 µM |  | > 100 µM |  | > 100 µM |  |
| Cc1cc2nc3ccc(=[N+](C)C)cc-3sc2cc1N | 0.336 µM and 0.381 µM | 1.75 µM and 13.9 µM and 11.2 µM |  | 41.5 µM | 0.388 µM and 0.381 µM | 2.78 µM and 9.3 µM and 2.51 µM | 2.09 µM and 2.87 µM | 5.45 µM and 22.8 µM and 9.44 µM | 1.53 µM and 1.81 µM | 5.18 µM and 20.2 µM and 5.32 µM | 0.178 µM and 0.26 µM | 0.992 µM and 9.89 µM and 1.25 µM | 0.237 µM and 0.363 µM |  | 0.27 µM and 0.8 µM | 1.99 µM and 7.22 µM and 7.3 µM | 1.44 µM and 1.76 µM | 10.1 µM and 38.3 µM and 11.1 µM |  |
| COC(C(=O)C(O)C(C)O)C1Cc2cc3cc(OC4CC(OC5CC(O)C(O)C(C)O5)C(O)C(C)O4)c(C)c(O)c3c(O)c2C(=O)C1OC1CC(OC2CC(O)C(OC3CC(C)(O)C(O)C(C)O3)C(C)O2)C(O)C(C)O1 (stereo not drawn) | 0.0126 µg/mL and 0.00127 µg/mL |  |  |  | 0.0112 µg/mL and 0.000748 µg/mL |  | 0.00284 µg/mL | 2.03 µg/mL | 0.0112 µg/mL and 0.00231 µg/mL |  | 0.0112 µg/mL and 0.00413 µg/mL |  | 0.0112 µg/mL and 0.00269 µg/mL |  | 0.0112 µg/mL and 0.000822 µg/mL |  | 0.0112 µg/mL and 0.00321 µg/mL | 0.08 µg/mL and 0.082 µg/mL | inactive |
| Cn1c2ccccc2c(=O)c2c(O)cc3c(c21)CC(C1(C)CO1)O3 (stereo not drawn) |  | 28.2 µM |  | 31.8 µM |  | 4.14 µM |  | 20 µM |  | 26.9 µM |  | 12.9 µM |  | 1.45 µM |  | 2.51 µM |  | 30.8 µM |  |
| C=C(C)C1CC=C(C)CC1 (stereo not drawn) | > 100 µM | > 100 µM and 1790 µM | > 100 µM | > 100 µM and 1750 µM | > 100 µM | > 100 µM and 1690 µM | > 100 µM | > 100 µM and 1730 µM | > 100 µM | > 100 µM and 1830 µM | > 100 µM | > 100 µM and 1590 µM | > 100 µM | > 100 µM and 2180 µM | > 100 µM | > 100 µM and 1860 µM | > 100 µM | > 100 µM and 1530 µM |  |
| NC1=NN(c2ccccc2)C(=O)C1/C(=N\NC(=O)c1cc2ccccc2cc1O)C(=O)Nc1cccc(C(F)(F)F)c1 (stereo not drawn) |  | > 100 µM |  | > 100 µM |  | > 100 µM |  | > 100 µM |  | > 100 µM |  | > 100 µM |  | 65.9 µM |  | > 100 µM |  | > 100 µM |  |
| N.N.O=P([O-])([O-])CN(CCN(CP(=O)([O-])[O-])CP(=O)([O-])[O-])CP(=O)([O-])[O-].[Pt+2] | > 100 µM | > 100 µM | > 100 µM | > 100 µM | > 100 µM | > 100 µM | > 100 µM | > 100 µM | > 100 µM | > 100 µM | > 100 µM | > 100 µM | > 100 µM | > 100 µM | > 100 µM | > 100 µM | > 100 µM | > 100 µM |  |
| COc1cccc(NC(=O)C(C)(C)C)c1SSc1c(NC(=O)C(C)(C)C)cccc1OC |  | > 100 µM |  | > 100 µM |  | > 100 µM |  | > 65.1 µM |  | > 100 µM |  | > 100 µM |  | > 70.6 µM |  | 35.4 µM |  | > 86 µM |  |
| C/C=C(/CCC1NCCC2c3ccccc3NC12)[Si](C)(C)C (stereo not drawn) |  | 29.2 µM |  | 16.2 µM |  | 28.8 µM |  | 8.53 µM |  | 25.6 µM |  | 24 µM |  | 16.4 µM |  | 21.1 µM |  | 18.8 µM |  |
| C[C@]12CCC[C@H](O)[C@H]1C[C@H](CO)CC2 |  | > 100 µM |  | > 100 µM |  | > 100 µM |  | > 100 µM |  | > 100 µM |  | > 100 µM |  | > 100 µM |  | > 100 µM |  | > 100 µM |  |
| Cc1cc(=O)n2c3c(c4c(cc13)c(CO)cc(=O)n4C)OC2 |  | > 100 µM |  | > 100 µM |  | 48.1 µM |  | > 100 µM |  | > 100 µM |  | 40.1 µM |  |  |  | 39.1 µM |  | 97.1 µM |  |
| CCOC(=O)C1=C(C)N(Cc2ccccc2)C(=O)C1CC#N (stereo not drawn) |  | > 100 µM |  | > 100 µM |  | > 100 µM |  | > 100 µM |  | > 100 µM |  | > 100 µM |  | > 100 µM |  | > 100 µM |  | 82.5 µM |  |
| C1COCCOCCOCCOCCOCCO1.[Cl][Sn]([Cl])([c]1ccccc1)[c]1ccccc1 | 20.2 µM | 34.4 µM | 7.02 µM | 18.2 µM | 2.97 µM | 8.84 µM | 7.28 µM | 18.9 µM | 11.2 µM | 23.7 µM | 4.88 µM | 15.5 µM | 3.21 µM | 14.5 µM | 4.97 µM | 16.4 µM | 2.26 µM | 4.52 µM |  |
| COc1ccc2c(c1)[n+]([O-])c(-c1ccc(Br)cc1)c(N)[n+]2[O-] |  | > 100 µM |  | > 100 µM |  | 55.3 µM |  | > 100 µM |  | > 100 µM |  | > 100 µM |  | > 100 µM |  | > 100 µM |  | > 100 µM |  |
| C/C(=N\NC(=S)N1CCN(C2CCCCCC2)CC1)c1ccccn1 |  | 1.86 µM | 3.83 µM | 8.96 µM and 2.07 µM |  | 5.77 µM |  | 1.84 µM | < 0.001 µM | 3.7 µM |  | 1.74 µM | < 0.001 µM | 1.52 µM and 3.72 µM | < 0.001 µM | 7.94 µM and 2.63 µM | 0.00788 µM | 3.05 µM |  |
| C=C1COC(O)(C2OCOC(C3CC(=O)NC(=O)C3)C2O)C1C (stereo not drawn) | 0.00282 µM | 0.0303 µM and 0.0326 µM |  | 0.0281 µM and 0.0721 µM | 0.00267 µM | 0.0144 µM and 0.0338 µM |  | 0.0207 µM and 0.0511 µM | 0.00383 µM and 0.0166 µM | 0.0442 µM and 0.0773 µM |  | 0.046 µM | 0.00124 µM | 0.00804 µM and 0.00522 µM | 0.00425 µM and 0.0104 µM | 0.0413 µM and 0.0509 µM | 0.00585 µM and 0.0117 µM | 0.0354 µM and 0.045 µM |  |
| COC(=O)C1=Cc2cc(OC)c(OC)cc2[C@H](c2ccc(OC)c(OC)c2)C1C(=O)OC (stereo partly drawn) |  | > 100 µM |  | > 100 µM |  | > 100 µM |  | > 100 µM |  | > 100 µM |  | > 100 µM |  | > 100 µM |  | > 100 µM |  | > 100 µM |  |
| Cc1cc(Cl)ccc1NC(=O)CCCC(=O)C1CCC/C1=N\NC(=O)CC#N (stereo not drawn) |  | > 100 µM |  | > 100 µM |  | > 100 µM |  | > 100 µM |  | > 100 µM |  | > 100 µM |  | > 100 µM |  | > 100 µM |  | > 100 µM |  |
